This passage reports IC50 results from patent US12295396B2, “Antagonists of T2R54 and compositions and uses thereof” (Firmenich Incorporated, priority 2018, dated 2025).

The test addresses T1, hT2R54 (Homo sapiens, UniProt P59534).
T1 construct: expressed in transfected cells; it overexpresses a promiscuous G protein
T1 sequence (P59534 1-338): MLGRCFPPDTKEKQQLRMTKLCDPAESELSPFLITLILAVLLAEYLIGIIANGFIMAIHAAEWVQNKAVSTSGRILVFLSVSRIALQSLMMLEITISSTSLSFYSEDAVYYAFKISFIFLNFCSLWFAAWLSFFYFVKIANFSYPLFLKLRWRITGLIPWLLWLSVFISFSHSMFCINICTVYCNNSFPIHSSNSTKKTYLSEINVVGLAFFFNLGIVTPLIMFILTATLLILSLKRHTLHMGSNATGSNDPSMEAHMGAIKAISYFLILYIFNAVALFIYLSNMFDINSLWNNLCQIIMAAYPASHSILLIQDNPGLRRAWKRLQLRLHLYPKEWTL
Kind of test: Cell-based assay for measuring hT2R54 inhibition (FLIPR calcium, Fluo4AM, acetaminophen as bitter agonist). The note with it: Table 8; read-out: hT2R54 IC50. A digest of the protocol:
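The readout was FLIPR calcium (Fluo4AM, 10 s baseline, 3 min post-addition) in cells stably carrying hT2R54 plus a promiscuous G protein, with host cells lacking hT2R54 as counter-control. Acetaminophen concentration series were tested with and without set test-compound levels. Half-maximal block of the agonist response gave the EC50/IC50.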

For `CC(=O)c1cc2c(cc1NC(=O)CC1CCN(C(=O)[C@@H]3CCCO3)CC1)OCO2` [compound 472], the IC50 (as a rule, the concentration that inhibits the measured activity by half) was determined as 300 nM. To `CC(=O)c1cc2c(cc1NC(=O)CC1CCN(C(=O)C3CCN(C)C3)CC1)OCO2` (centres unmarked) [compound 473] belongs > 50000 nM. To `CC(=O)c1cc2c(cc1NC(=O)CC1CCN(C(=O)[C@H]3CCC(=O)O3)CC1)OCO2` [compound 474] belongs 130 nM. To `CC(=O)c1cc2c(cc1NC(=O)CC1CCN(C(=O)CC3CCCO3)CC1)OCCO2` (centres unmarked) [compound 475] belongs 300 nM; to `CC(=O)c1cc2c(cc1NC(=O)CC1CCN(C(=O)CC3CCCO3)CC1)OCO2` (centres unmarked) [compound 476], 300 nM. On to `CC(=O)c1cc2c(cc1NC(=O)CC1CCN(C(=O)CC3CCOC3)CC1)OCO2` (centres unmarked) [compound 477], for which the IC50 is 400 nM. Regarding `CC(=O)c1cc2c(cc1NC(=O)CC1CCN(C(=O)CN3CCCC3)CC1)OCO2` [compound 479], the IC50 was > 10000 nM. The same measure for `COC(=O)c1cc2c(cc1NC(=O)CC1CCCN(C(C)=O)C1)OCO2` (centres unmarked) [compound 480]: 1400 nM; for `COC(=O)c1cc2c(cc1NC(=O)CC1CCCN(C(=O)C3CCCO3)C1)OCO2` (centres unmarked) [compound 481]: 2200 nM; for `COC(=O)c1cc2c(cc1NC(=O)CC1CCN(C(=O)C3CCCO3)CC1)OCO2` (centres unmarked) [compound 482]: 1400 nM. In the case of `COCc1ccc(C(=O)N2CCC(CC(=O)Nc3cc4c(cc3C(=O)OC)OCO4)CC2)cc1` [compound 483], the IC50 came out at 640 nM.

Turning to `COC(=O)c1cc2c(cc1NC(=O)CC1CCN(C(=O)c3ccncc3)CC1)OCO2` [compound 484], the IC50 came to 460 nM.

With `CC(=O)c1cc2c(cc1NC(=O)CC1CCN(C(=O)c3cccnc3)CC1)OCCO2` [compound 485], the IC50 is 240 nM. To `COCc1cccc(C(=O)N2CCC(CC(=O)Nc3cc4c(cc3C(C)=O)OCCO4)CC2)c1` [compound 486] belongs 188 nM; to `CC(=O)c1cc2c(cc1NC(=O)CC1CCN(C(=O)c3ccc(CO)o3)CC1)OCCO2` [compound 487], 250 nM; to `COCc1ccc(C(=O)N2CCC(CC(=O)Nc3cc4c(cc3C(C)=O)OCCO4)CC2)s1` [compound 488], 15 nM. On to `COCc1ccc(C(=O)N2CCC(CC(=O)Nc3cc4c(cc3C(C)=O)OCCO4)CC2)o1` [compound 489], for which the IC50 stood at 150 nM. The same measure for `CC(=O)c1cc2c(cc1NC(=O)CC1CCN(C(=O)c3cc(CO)on3)CC1)OCCO2` [compound 490]: 160 nM; for `COCc1cc(C(=O)N2CCC(CC(=O)Nc3cc4c(cc3C(C)=O)OCCO4)CC2)no1` [compound 491]: 160 nM. With `CC(=O)c1cc2c(cc1NC(=O)CC1CCN(C(=O)C3CCCO3)CC1)OCCO2` (centres unmarked) [compound 493], the IC50 came to 450 nM. To `CC(=O)c1cc2c(cc1NC(=O)CC1CCN(C(=O)[C@@H]3CCCO3)CC1)OCCO2` [compound 494] belongs 300 nM; to `CC(=O)c1cc2c(cc1NC(=O)CC1CCN(C(=O)[C@H]3CCCO3)CC1)OCCO2` [compound 495], 200 nM; to `COc1cc2c(cc1NC(=O)CC1CCN(C(C)=O)CC1)OCO2` [compound 496], > 10000 nM. The same measure for `COc1cc2c(cc1NC(=O)CC1CCN(C(=O)C3CCCO3)CC1)OCO2` (centres unmarked) [compound 497]: > 10000 nM; for `COc1cc2c(cc1NC(=O)CC1CCN(C(=O)Cc3ccco3)CC1)OCO2` [compound 498]: > 10000 nM. For the compound `COc1cc2c(cc1NC(=O)CC1CCN(C(=O)c3nc(C)c[nH]3)CC1)OCO2` [compound 499], the IC50 was > 10000 nM. To `COc1cc2c(cc1NC(=O)CC1CCN(C(=O)c3ccc(C)o3)CC1)OCO2` [compound 500] belongs 4000 nM. In the case of `COc1cc2c(cc1NC(=O)CC1CCN(C(=O)c3ccncc3)CC1)OCO2` [compound 501], the IC50 was > 50000 nM. Take `CC(=O)c1cc2c(cc1NC(=O)CC1CCCN(C(=O)c3ccncc3)C1)OCO2` (centres unmarked) [compound 502]: the IC50 was 170 nM.
